Assay results published in patent publication US20080221107A1, “Therapeutic Agents” (ASTRAZENECA AB, priority 2005, published 2008).

How the values were obtained:
[1] = target: T1, human Melanin concentrating hormone receptor 1 (hMCHr1) (Homo sapiens, UniProt Q99705); test: MCHr1 receptor radioligand binding (125I-MCH, membranes from CHO-K1 cells); details: 125I-MCH displacement, CHO-K1 membranes expressing hMCHr1, 30° C. 60 minutes; read-out: IC50 in human MCHr binding assay
T1 construct: purchased Euroscreen; host or cells: CHO-K1 cells (recombinant expression; membranes)
T1 sequence (Q99705 whole entry): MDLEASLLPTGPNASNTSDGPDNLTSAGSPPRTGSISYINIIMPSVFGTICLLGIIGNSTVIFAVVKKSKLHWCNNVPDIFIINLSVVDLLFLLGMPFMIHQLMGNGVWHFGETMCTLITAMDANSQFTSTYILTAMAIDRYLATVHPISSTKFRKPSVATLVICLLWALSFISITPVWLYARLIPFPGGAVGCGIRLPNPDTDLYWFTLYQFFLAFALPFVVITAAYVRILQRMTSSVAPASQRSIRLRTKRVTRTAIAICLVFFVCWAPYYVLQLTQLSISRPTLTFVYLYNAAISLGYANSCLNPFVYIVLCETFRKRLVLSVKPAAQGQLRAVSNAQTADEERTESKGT
Protocol: Assays were performed in a 96-well plate format in a final reaction volume of 200 μl per well. […] Filters were washed with assay buffer.
Non-specific binding was subtracted from all values determined. […] Binding of compounds at various concentrations was plotted according to the equation

hERG = hERG (Homo sapiens, UniProt Q12809); test: hERG activity (planar-array-based voltage clamp, modified Kiss et al. method); format: cell-based
Sequence of hERG (Q12809 whole entry): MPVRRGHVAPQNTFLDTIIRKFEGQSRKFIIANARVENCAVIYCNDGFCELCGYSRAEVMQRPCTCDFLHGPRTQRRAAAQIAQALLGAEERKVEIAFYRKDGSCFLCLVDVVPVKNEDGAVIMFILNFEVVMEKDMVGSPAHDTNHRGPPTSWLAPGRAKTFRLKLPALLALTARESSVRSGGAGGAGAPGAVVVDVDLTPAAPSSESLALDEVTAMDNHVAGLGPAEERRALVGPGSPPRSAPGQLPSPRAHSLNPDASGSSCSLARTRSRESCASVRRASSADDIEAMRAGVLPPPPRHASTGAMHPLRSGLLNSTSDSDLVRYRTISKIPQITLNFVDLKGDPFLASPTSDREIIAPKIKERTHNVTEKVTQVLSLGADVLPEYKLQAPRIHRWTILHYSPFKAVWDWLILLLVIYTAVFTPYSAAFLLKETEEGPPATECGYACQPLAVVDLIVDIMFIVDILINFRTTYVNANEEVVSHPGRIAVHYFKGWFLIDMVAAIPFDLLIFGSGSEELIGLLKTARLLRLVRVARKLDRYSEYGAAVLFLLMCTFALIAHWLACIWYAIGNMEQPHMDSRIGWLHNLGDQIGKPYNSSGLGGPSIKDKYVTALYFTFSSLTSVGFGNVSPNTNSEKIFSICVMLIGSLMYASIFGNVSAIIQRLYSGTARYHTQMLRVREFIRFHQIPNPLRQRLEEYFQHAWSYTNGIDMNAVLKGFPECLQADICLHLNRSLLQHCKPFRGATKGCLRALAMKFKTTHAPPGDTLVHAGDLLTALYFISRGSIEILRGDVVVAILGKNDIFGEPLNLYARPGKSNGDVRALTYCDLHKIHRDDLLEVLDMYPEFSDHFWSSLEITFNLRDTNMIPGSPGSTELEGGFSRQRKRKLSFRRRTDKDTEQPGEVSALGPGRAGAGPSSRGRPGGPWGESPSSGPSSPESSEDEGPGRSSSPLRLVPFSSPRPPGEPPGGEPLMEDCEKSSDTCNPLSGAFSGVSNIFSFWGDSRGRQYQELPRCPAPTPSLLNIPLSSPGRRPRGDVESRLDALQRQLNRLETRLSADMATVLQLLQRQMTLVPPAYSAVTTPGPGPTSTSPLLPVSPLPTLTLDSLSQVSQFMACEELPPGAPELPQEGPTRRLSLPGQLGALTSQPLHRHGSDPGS
Protocol: hERG testing was performed using a modified version of the method described by Kiss L, Bennett P B, Uebele V N, Koblan K S, Kane S A, Neagle B, Schroeder K. “High throughput ion-channel pharmacology: planar-array-based voltage clamp.” Assay Drug Dev Technol. 1, 127-35. (2003).

IC50 [1]: 11 nM
SMILES: COc1cc(-n2nnc3cc(-c4ccc(Cl)cc4)sc3c2=O)ccc1N1CC[C@@H](O)C1 [Example 1, 6-(4-Chlorophenyl)-3-{4-[(3R)-3-hydroxypyrrolidin-1-yl]-3-methoxyphenyl}thieno[3,2-d][1,2,3]triazin4(3D)-one]
IC50 (hERG): > 5000 nM
